# Reference: paper PMC8580319, “Dual activities of ACC synthase: Novel clues regarding the molecular evolution of ACS genes” (Science Advances, 2021)
# What was measured:
# Details in all cases: Cβ-S lyase activity; 4 mM L-cystine, 100 μM PLP, 30°C
# AtACS11 = biological target: T1, AtACS11 (Arabidopsis thaliana, UniProt Q9S9U6); assay: pyruvate formation, […],4-dinitrophenylhydrazine, A520; assay type: biochemical
# T1 construct: gene ACS11; recombinant, His or GST tag, from E. coli
# T1 sequence (Q9S9U6 1-460): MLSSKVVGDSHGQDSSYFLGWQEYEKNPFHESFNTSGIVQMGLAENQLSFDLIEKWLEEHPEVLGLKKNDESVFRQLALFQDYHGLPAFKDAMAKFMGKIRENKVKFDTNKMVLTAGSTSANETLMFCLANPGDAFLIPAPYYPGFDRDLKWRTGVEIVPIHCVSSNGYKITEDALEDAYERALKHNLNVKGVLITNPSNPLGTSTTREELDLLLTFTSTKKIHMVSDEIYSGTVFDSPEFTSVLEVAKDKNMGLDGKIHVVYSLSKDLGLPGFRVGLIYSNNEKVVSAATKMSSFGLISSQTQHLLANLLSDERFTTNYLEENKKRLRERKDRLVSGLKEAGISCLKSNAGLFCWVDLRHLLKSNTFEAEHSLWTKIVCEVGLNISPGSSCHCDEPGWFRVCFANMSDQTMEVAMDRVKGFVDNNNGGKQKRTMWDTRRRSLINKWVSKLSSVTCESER
# SlACS4 = biological target: T2, SlACS4 (Solanum lycopersicum, UniProt P29535); assay: as above; assay type: biochemical
# T2 construct: gene ACS4; recombinant, His or GST tag, from E. coli
# OsACS5 = biological target: T3, OsACS5 (Oryza sativa, UniProt A0A0P0UZP7)
# T3 construct: gene ACS5
# AtACS6 = biological target: T4, AtACS6 (Arabidopsis thaliana, UniProt Q9SAR0); assay: pyruvate formation, […],4-dinitrophenylhydrazine, A520; assay type: biochemical
# T4 construct: gene ACS6; recombinant, His or GST tag, from E. coli
# T4 sequence (Q9SAR0 1-495): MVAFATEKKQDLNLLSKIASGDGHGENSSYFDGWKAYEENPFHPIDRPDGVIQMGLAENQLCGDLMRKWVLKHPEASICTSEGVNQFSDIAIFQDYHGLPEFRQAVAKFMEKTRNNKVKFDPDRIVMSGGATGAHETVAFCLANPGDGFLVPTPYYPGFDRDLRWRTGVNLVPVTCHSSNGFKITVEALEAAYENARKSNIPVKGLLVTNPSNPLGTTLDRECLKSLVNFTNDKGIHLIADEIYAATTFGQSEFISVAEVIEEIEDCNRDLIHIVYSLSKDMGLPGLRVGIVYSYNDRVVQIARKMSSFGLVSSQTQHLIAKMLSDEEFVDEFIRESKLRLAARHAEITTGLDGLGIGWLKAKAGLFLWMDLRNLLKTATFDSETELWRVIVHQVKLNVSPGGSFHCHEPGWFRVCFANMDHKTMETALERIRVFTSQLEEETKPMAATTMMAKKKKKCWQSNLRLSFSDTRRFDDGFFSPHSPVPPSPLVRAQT
# GmACS7-like = biological target: T5, GmACS7-like (Glycine max, UniProt I1K634); assay: as above; assay type: biochemical
# T5 construct: gene LOC100799562; recombinant, His or GST tag, from E. coli
# T5 sequence (I1K634 1-440): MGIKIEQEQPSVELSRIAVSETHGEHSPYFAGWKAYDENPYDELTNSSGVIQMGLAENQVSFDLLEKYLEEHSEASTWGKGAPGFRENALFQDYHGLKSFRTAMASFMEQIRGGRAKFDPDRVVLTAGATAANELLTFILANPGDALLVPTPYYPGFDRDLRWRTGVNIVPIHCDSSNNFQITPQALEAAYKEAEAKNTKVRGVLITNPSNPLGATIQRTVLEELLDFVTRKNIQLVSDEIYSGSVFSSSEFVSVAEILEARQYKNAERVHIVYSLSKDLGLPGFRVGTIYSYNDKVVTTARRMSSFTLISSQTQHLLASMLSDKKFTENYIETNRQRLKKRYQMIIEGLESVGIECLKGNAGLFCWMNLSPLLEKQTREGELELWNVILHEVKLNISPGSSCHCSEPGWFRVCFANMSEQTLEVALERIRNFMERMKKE
# AtACS8 = biological target: T6, AtACS8 (Arabidopsis thaliana, UniProt Q9T065); assay: as above; assay type: biochemical
# T6 construct: gene ACS8; recombinant, His or GST tag, from E. coli
# T6 sequence (Q9T065 1-469): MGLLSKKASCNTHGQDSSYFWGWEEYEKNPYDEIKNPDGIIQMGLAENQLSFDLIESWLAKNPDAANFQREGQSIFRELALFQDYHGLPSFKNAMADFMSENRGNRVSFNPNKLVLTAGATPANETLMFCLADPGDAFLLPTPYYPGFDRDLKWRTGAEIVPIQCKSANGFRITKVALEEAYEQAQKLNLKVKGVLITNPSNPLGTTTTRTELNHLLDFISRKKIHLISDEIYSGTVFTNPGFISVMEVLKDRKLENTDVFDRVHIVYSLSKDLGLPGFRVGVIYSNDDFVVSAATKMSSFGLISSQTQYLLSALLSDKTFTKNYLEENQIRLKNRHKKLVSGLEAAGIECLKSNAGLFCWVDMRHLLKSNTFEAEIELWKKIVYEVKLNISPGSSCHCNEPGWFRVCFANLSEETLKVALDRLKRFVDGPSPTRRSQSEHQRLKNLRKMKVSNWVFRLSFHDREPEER
# OsACS1 = biological target: T7, OsACS1 (Oryza sativa, UniProt A2XLL2); assay: as above; assay type: biochemical
# T7 construct: gene ACC1; recombinant, His or GST tag, from E. coli
# T7 sequence (A2XLL2 1-487): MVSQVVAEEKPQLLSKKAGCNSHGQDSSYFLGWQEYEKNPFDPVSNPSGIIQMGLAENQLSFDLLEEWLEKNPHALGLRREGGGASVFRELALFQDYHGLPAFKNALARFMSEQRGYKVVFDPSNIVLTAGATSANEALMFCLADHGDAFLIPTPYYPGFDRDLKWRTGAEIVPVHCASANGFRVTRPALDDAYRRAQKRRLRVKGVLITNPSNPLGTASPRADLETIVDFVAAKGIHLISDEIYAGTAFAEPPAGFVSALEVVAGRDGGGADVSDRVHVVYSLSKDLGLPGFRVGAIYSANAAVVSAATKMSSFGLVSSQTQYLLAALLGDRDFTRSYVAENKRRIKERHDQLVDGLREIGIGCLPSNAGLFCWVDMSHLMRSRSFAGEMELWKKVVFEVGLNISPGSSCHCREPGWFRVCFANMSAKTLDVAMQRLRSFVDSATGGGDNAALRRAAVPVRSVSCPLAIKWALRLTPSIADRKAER
# T3 sequence (A0A0P0UZP7 whole entry): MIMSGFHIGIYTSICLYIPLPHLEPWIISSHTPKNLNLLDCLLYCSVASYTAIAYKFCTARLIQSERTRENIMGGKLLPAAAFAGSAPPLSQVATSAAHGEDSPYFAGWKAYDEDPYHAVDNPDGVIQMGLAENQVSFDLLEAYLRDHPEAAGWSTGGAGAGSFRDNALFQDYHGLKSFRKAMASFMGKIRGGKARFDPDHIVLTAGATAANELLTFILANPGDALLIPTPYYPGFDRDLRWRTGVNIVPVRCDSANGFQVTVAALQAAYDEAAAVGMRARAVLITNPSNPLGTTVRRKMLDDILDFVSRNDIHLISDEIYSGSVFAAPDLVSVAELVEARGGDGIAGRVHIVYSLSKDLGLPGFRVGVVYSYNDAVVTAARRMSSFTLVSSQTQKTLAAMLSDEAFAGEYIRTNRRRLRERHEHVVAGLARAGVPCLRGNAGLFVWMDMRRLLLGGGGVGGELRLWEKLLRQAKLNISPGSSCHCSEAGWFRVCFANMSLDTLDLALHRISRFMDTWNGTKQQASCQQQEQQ
# T2 sequence (P29535 whole entry): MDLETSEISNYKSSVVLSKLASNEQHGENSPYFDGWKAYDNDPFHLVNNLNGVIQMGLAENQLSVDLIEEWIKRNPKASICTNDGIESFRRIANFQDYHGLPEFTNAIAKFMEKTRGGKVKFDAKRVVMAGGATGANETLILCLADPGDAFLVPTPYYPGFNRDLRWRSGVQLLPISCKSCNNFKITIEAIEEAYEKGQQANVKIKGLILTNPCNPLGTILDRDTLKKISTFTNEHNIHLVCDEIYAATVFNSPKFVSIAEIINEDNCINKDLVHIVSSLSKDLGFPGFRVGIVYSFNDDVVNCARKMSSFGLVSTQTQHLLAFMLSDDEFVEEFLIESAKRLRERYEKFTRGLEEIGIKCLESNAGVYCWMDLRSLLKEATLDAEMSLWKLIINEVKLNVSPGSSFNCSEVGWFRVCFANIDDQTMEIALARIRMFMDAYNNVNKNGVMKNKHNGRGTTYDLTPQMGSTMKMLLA
smiles,measurement,setting,value
N[C@@H](CSSC[C@H](N)C(=O)O)C(=O)O [L-cystine],"pyruvate formation, 2,4-dinitrophenylhydrazine, A520",AtACS11,all of them had ACS and Cβ-S lyase dual enzymatic activities
same,"pyruvate formation, 2,4-dinitrophenylhydrazine, A520",SlACS4,all of them had ACS and Cβ-S lyase dual enzymatic activities
same,"pyruvate formation, 2,4-dinitrophenylhydrazine, A520",OsACS5,all of them had ACS and Cβ-S lyase dual enzymatic activities
same,"pyruvate formation, 2,4-dinitrophenylhydrazine, A520",AtACS6,all of them had ACS and Cβ-S lyase dual enzymatic activities
same,"pyruvate formation, 2,4-dinitrophenylhydrazine, A520",GmACS7-like,all of them had ACS and Cβ-S lyase dual enzymatic activities
same,"pyruvate formation, 2,4-dinitrophenylhydrazine, A520",AtACS8,all of them had ACS and Cβ-S lyase dual enzymatic activities
same,"pyruvate formation, 2,4-dinitrophenylhydrazine, A520",OsACS1,all of them had ACS and Cβ-S lyase dual enzymatic activities
